In brackets after ≈: the same amount, converted by molar mass.

Assay [1] concerns polyclonal Ab 2 (antibody to chrysoidine, from Hapten 2). The assay can be described thus: indirect competitive ELISA (icELISA) with polyclonal Ab 2. Type of assay: binding, New Zealand white rabbits. The note with it: for Cross-reactivity / IC50: polyclonal Ab 2, coating antigen Hapten 1-OVA; for Cross-reactivity: CR = IC50(chrysoidine)/IC50(interferent) x 100. The method, then: Specificity of the optimized assay was tested by measuring the cross-reactivity using a group of structurally related dyes. Twenty-four compounds were selected for testing the cross-reactivity (CR) (Table 1). The CR was calculated as follows: CR(%) = [IC50(chrysoidine) / IC50(interferent)] × 100.

Assay [2] deals with Ab 1 (antibody to chrysoidine, from Hapten 1). The assay is described as follows: indirect competitive ELISA (icELISA) with polyclonal Ab 1.
Description: Checkerboard assays, in which antibodies were titrated against various amounts of the coating antigen, were used to measure the reactivity of antibodies and to select an appropriate antigen coating and antibody dilutions for competitive indirect assays. […] The concentrations of the antibodies and the coating antigen chosen were further optimized.
The procedure for the competitive assay was as follows. Microtiter plates were coated with hapten-OVA (100–1000 ng/mL, 100 µL/well) in carbonate-bicarbonate buffer (50 mM, pH 9.6) by overnight incubation at 4 °C. The plates were blocked with blocking solution by incubation for 3 h. Serial dilution of the analyte in methanol-PBST (1:9, v:v, 50 µL/well) were added, followed by 50 µL/well of antibody diluted (1/1,000–1/10,000) with PBST solution. After incubation for about 30–60 min, 100 µL/well of a diluted (1/10,000) goat anti-rabbit IgG-HRP was added. The mixture was incubated for 60 min, and 100 µL/well of a TMB solution was added. The reaction was stopped after an appropriate time (typically 8 min) by adding 10% (v:v) H2SO4 (50 µL), and the absorbance was read at 450 nm.
Assay [3] concerns polyclonal Ab 2 (antibody to chrysoidine, from Hapten 2). The assay can be described thus: indirect competitive ELISA (icELISA) with polyclonal Ab 2. Type of assay: binding, New Zealand white rabbits. As to conditions: coating antigen Hapten 2-OVA 17 ng/mL, Ab 2 dilution 10000 (homologous).
The mark [4] stands for this setting: coating antigen Hapten 1-OVA 20 ng/mL, Ab 1 dilution 8000 (homologous).
The mark [5] stands for this setting: coating antigen Hapten 2-OVA 20 ng/mL, Ab 1 dilution 20000 (heterologous).
[6] abbreviates: coating antigen Hapten 1-OVA 20 ng/mL, Ab 2 dilution 4000 (heterologous).

Turning to `O=C1OC2(c3ccc(Cl)cc3Oc3cc(Cl)ccc32)c2ccccc21` [Reddish orange], the Cross-reactivity in assay [1] is at most 0.01%. The same molecule displayed an IC50 in assay [1] (class symbol ND) above 13.3 µM.

For the molecule `COc1cc(S(=O)(=O)O)c(C)cc1/N=N/c1c(O)ccc2cc(S(=O)(=O)O)ccc12` [Allura Red], in assay [1], the Cross-reactivity is at most 0.01%. For the same molecule, in assay [1] (class symbol ND), the IC50 is above 13.3 µM.

For the molecule `O=S(=O)(O)c1ccc2c(/N=N/c3ccc(S(=O)(=O)O)c4ccccc34)c(O)c(S(=O)(=O)O)cc2c1` [Amaranth], in assay [1], the Cross-reactivity is given as at most 0.01%. The same molecule had an IC50 in assay [1] (class symbol ND) above 13.3 µM.

In the case of `O=S(=O)(O)c1ccc(/N=N/c2ccc(Nc3ccccc3)cc2)cc1` [Orange yellow], the Cross-reactivity in assay [1] is listed as at most 0.01%. The molecule also gave an IC50 in assay [1] (class symbol ND) above 13.3 µM.

Carmine: the Cross-reactivity in assay [1] is at most 0.01%. In assay [1] (class symbol ND), this molecule came in with an IC50 above 13.3 µM.

For `O=S(=O)(O)c1ccc(/N=N/c2cc(S(=O)(=O)O)c3ccccc3c2O)c2ccccc12` [Azorubine], the Cross-reactivity in assay [1] was at most 0.01%. Further, the IC50 in assay [1] (class symbol ND) is above 13.3 µM.

`Nc1ccc(N=Nc2ccc(C(=O)O)cc2)c(N)c1` [Hapten1, 4-((2,4-Diaminophenyl)diazenyl)benzoic acid]: in assay [1], the half-inhibitory concentration (IC50) was 0.00078 µM and the Cross-reactivity amounted to 169.8%. In assay [1] (listed as Hapten 1), the Cross-reactivity turned out to be 170%.

On to Acid Red 94, for which, in assay [1], the Cross-reactivity is listed as at most 0.01%. For the same molecule, in assay [1] (class symbol ND), the IC50 is above 13.3 µM.

Turning to `O=C1OC2(c3ccccc31)c1cc(I)c(O)c(I)c1Oc1c2cc(I)c(O)c1I` [Erythrosine], the Cross-reactivity in assay [1] is listed as at most 0.01%. The half-maximal inhibitory concentration (IC50) in assay [1] (class symbol ND) was above 13.3 µM.

Turning to `CN(C)c1ccc(C(=N)c2ccc(N(C)C)cc2)cc1` [Auramine O], in assay [1], the 50% inhibitory concentration (IC50) was 0.798 µM and the Cross-reactivity came out at 0.2%.

On to `O=C(O)C1=NN(c2ccc(S(=O)(=O)O)cc2)C(=O)C1/N=N/c1ccc(S(=O)(=O)O)cc1` (centres unmarked) [Tartrazine], for which the Cross-reactivity in assay [1] was at most 0.01%. The molecule also returned a half-inhibitory concentration (IC50) in assay [1] (class symbol ND) above 13.3 µM.

As for `Nc1nc(N)nc(N)n1` [Melamine], the Cross-reactivity in assay [1] is listed as at most 0.01%. The molecule further came in with an IC50 in assay [1] (class symbol ND) above 13.3 µM.

`Nc1ccc(N=Nc2ccc(CC(=O)O)cc2)c(N)c1` [Hapten2, 2-(4-((2,4-Diaminophenyl)diazenyl)phenyl)acetic acid]: the IC50 in assay [1] stood at 0.00105 µM. Moreover, the results for the Cross-reactivity in assay [1] and in assay [1] (listed as Hapten 2) were 127.0% and 127%, respectively.

For `O=C(O)C1=NN(c2ccc(S(=O)(=O)O)cc2)C(=O)C1/N=N/c1ccc(S(=O)(=O)O)cc1` (centres unmarked) [Acid Yellow 23], in assay [1], the IC50 was 3.05 µM and the Cross-reactivity came out at 0.04%.

Consider `Cc1ccc([N+](=O)[O-])cc1N` [Scarlet Base G], for which the Cross-reactivity in assay [1] is given as at most 0.01%. In addition, in assay [1] (class symbol ND), the IC50 is above 13.3 µM.

Regarding `O=C1/C(=C2\Nc3ccccc3C2=O)Nc2ccccc21` [Indigo], in assay [1], the Cross-reactivity was at most 0.01%. The 50% inhibitory concentration (IC50) in assay [1] (class symbol ND) is above 13.3 µM.

Consider `O=S(=O)(O)c1ccc(/N=N/c2ccc(O)c3ccccc23)cc1` [Orangeim], for which, in assay [1], the IC50 was determined as 1.12 µM and the Cross-reactivity came to 0.1%. Moreover, in assay [1] (listed as orangeim), the Cross-reactivity worked out at 0.12%.

Turning to `O=[N+]([O-])c1ccc(N=Nc2c(O)ccc3ccccc23)cc1` [1-(4-nitrophenyl-azo)-2-naphthol], the Cross-reactivity in assay [1] is recorded as at most 0.01%. This molecule also had an IC50 in assay [1] (class symbol ND) above 13.3 µM.

Turning to `O=S(=O)(O)c1ccc(/N=N/c2c(O)ccc3cc(S(=O)(=O)O)ccc23)cc1` [Sunset yellow], in assay [1], the Cross-reactivity is given as at most 0.01%. Further, in assay [1] (class symbol ND), the IC50 is above 13.3 µM.

On to `Cc1c(C(=O)O)c(O)cc2c1C(=O)c1c(O)c([C@@H]3O[C@H](CO)[C@@H](O)[C@H](O)[C@H]3O)c(O)c(O)c1C2=O` [Carminic acid], for which, in assay [1], the Cross-reactivity is on record as at most 0.01%. In assay [1] (class symbol ND), this molecule came in with an IC50 above 13.3 µM.

`Oc1ccc2ccccc2c1/N=N/c1ccccc1` [Sudan Red I]: in assay [1], the Cross-reactivity is at most 0.01%. In assay [1] (class symbol ND), this molecule had an IC50 above 13.3 µM.

With `Nc1ccc(/N=N/c2ccccc2)c(N)c1` [Chrysoidine], the IC50 in assay [2] (setting [4]) is 7.4 ng/mL (≈ 0.0349 µM); in assay [2] (setting [5]), 1.6 ng/mL (≈ 0.00754 µM); in assay [1] it was 0.00133 µM; in assay [3], 10.6 ng/mL (≈ 0.0499 µM). Further, the “LOD (10% inhibitory concentration)” value in assay [2] (setting [4]) is 0.8 ng/mL; in assay [2] (setting [5]) it was 0.4 ng/mL; in assay [1] (setting [6]) it was 0.04 ng/mL; in assay [1] (coating antigen Hapten 1-OVA 20 ng/mL, Ab 2 dilution 4000 (heterologous), listed as chrysoidine) it was at most 0.04 ng/mL; in assay [3] it was 3.8 ng/mL. For the same molecule, the “IC50 (50% inhibitory concentration)” value in assay [1] (setting [6]) was determined as 0.33 ng/mL (≈ 0.00155 µM). Further, in assay [1] (coating antigen Hapten 1-OVA, Ab 2 (heterologous)), the “limit of quantitation (LOQ, 20%-80% inhibitory concentration)” value is 0.09 to 4.9 ng/mL. Moreover, the Cross-reactivity in assay [1] came out at 100.0%.

Turning to `CCN(Cc1cccc(S(=O)(=O)O)c1)c1ccc(C(=C2C=CC(=[N+](CC)Cc3cccc(S(=O)(=O)O)c3)C=C2)c2ccc(O)cc2S(=O)(=O)[O-])cc1` [Brilliant blue-85], the Cross-reactivity in assay [1] is given as at most 0.01%. Moreover, in assay [1] (class symbol ND), the IC50 is above 13.3 µM.

For the origin of these results see paper PMC6264186, “Development of a Highly Sensitive and Specific Immunoassay for Determining Chrysoidine, A Banned Dye, in Soybean Milk Film” (Molecules, 2011).
